“Also recorded” adds a separate entry of the source.
Assays:
[1] = molecular target: T1, EGFR autophosphorylation in DU145 cells (Homo sapiens, UniProt P00533); assay: EGFR phosphorylation assay, whole cell (Western blot); format: cell-based
T1 construct: endogenous in cells; host or cells: DU145
Procedure: EGFR Phosphorylation Assay: DU145 cells (1×10^6) were preincubated in a six-well plate using 10% serum at 37° C. over a period of 24 h followed by a starving period of 24 h. The cells where then exposed to a dose range of each drug over a period of 2 h and subsequently treated with 50 ng/ml of EGF for 20 min at 37° C. The cells were washed with PBS and resuspended in cold lysis buffer [50 mmol/L Tris-HCl (pH 7.5), 150 mmol/L NaCl, 1% NP40, 1 mmol/L EDTA, 5 mmol/L NaF, 1 mmol/L Na3VO4, protease inhibitor tablet (Roche Biochemicals, Laval, Quebec, Canada)]. The lysates were kept on ice for 30 min and collected by centrifugation at 10,000 rpm for 20 min at 4° C. The concentrations of protein were determined using the Bio-Rad protein assay kit (Bio-Rad Laboratories, Hercules, Calif.). Equal amounts of protein […] were subjected to a 10% SDS-polyacrylamide gel electrophoresis (SDS-PAGE) and transferred to a polyvinylidene difluoride membrane (Millipore, Bedford, Mass.). Nonspecific binding on the membrane was minimized with a blocking buffer containing bovine serum albumin (5%) in PBS-Tween 20. The membranes were subsequently incubated with primary anti-phosphotyrosine antibody (Upstate Biotechnology, Lake Placid, N.Y.) for the detection of phosphotyrosine. The membranes were stripped and reprobed with anti-EGFR (Neomarkers, Fremont, Calif.) for determination of corresponding receptor levels. Blots were incubated with horseradish peroxidase-goat anti-mouse antibody (1:1,000 dilution; Cell Signaling Research, Beverly, Mass.), and the bands visualized with an enhanced chemiluminescence system (Amersham Pharmacia Biotech,. Little Chalfont, UK). Band intensities were measured using the SynGene GeneTools software package.
Inhibition of EGFR TK in Whole Cell Assay: DU145 cells were starved for 24 h and stimulated with EGF in the presence of the different drugs over a period of 2 h. Inhibition of autophosphorylation of EGFR was analyzed by Western blotting. The observed order of potency from this whole cell assay paralleled the one previously observed with ELISA. […]

LNCaP-WT = assay: Growth inhibition assay (SRB), LNCaP-WT; settings: 144 h, read-out: IC50 (x ± SD)
Procedure: (§1) Cell Culture: The human prostate cancer cell line DU145 was obtained from the American Type Culture Collection (Manassas, Va.)). The androgen-sensitive prostate cancer cell lines LNCaP-FGC, LNCaP-EGFR and LNCaP-erbB2 (stably transfected with EGFR erbB2 gene respectively) were generous gifts from Dr. Moulay Aloui-Jamali (Jewish General Hospital, Montreal, Quebec, Canada). […] The cultures were maintained in logarithmic growth by harvesting with a trypsin-EDTA solution containing 0.5 mg/mL trypsin and 0.2 mg/mL EDTA and replating before confluence. In all assays, the cells were plated over a period of time ranging from 24-48 h prior to drug administration.

DU145 cells [2] = assay: Annexin V binding analysis (apoptosis); format: cell-based, human; settings: 25 μM, 48 h exposure
Procedure: Annexin V binding Analysis: Cells were pre-incubated in 6-well plates until confluence and then exposed to a dose range of each drug over a period 48 h. The cells were subsequently harvested and incubated with annexin V-FITC and propidium iodide (PI) using the apoptosis Detection Kit (BD Bioscience Pharmingen, USA) and the supplier's protocol. Annexin V-FITC and PI binding were analyzed using a Becton-Dickinson FACScan. Data were collected using logarithmic amplification of both the FL1 (FITC) and FL2 (PI) channels. Quadrant analysis of coordinate dot plots was performed with CellQuest software.
Induction of Apoptosis: Annexin V-FITC (FL1-H) and PI (FL2-H) staining (detected by flow cytometry) was used to distinguish viable (PI-/FITC−), early apoptotic (PI-/FITC+), late apoptotic (PI+/FITC+) and necrotic (PI+/FITC−) cells. […] JDF04R, Iressa and MTZ however, induced only barely detectable levels of apoptosis (<10%). The results are indicative that the combined EGFR TK inhibitory and DNA damaging properties of JDF12 can induce more cell apoptosis than observed with a single-function drug (e.g. Iressa and MTZ) alone (FIG. 7a-c).

DU145 cells [3] = assay: Alkaline comet assay for quantization of DNA damage; format: cell-based, human
Procedure: Alkaline Comet Assay for Quantization of DNA Damage: A modified alkaline comet assay technique was used for quantization of DNA damage induced in DU145 cells. The cells were exposed to a dose range of the drugs (JDF12, JDF04R, or MTZ) over a period of 2 h and harvested with trypsin-EDTA. The cells were subsequently collected by centrifugation and resuspended in PBS. The resulting cell suspensions were diluted to 3×10^5 cell/mL and mixed with agarose (0.75%) in PBS at 37° C. in a 1:9 dilution. The gels were cast on Gelband strips (Mandel Scientific, Guelph, Ontario, Canada) using gel casting chambers and then immediately placed into a lysis buffer (2.5 M NaCl, 0.1 M tetrasodium EDTA, 10 mM Trisbase, 1% (v/v) N-lauryl sarcosine, 10% (v/v) DMSO, and 1% (v/v) Triton X-100). After being kept overnight at 4° C., the gels were gently rinsed with distilled water and immersed in a second lysis buffer (2.5 M NaCl, 0.1 M tetrasodium EDTA, 10 mM Tris base) containing 1 mg/mL proteinase K for 60 min at 37° C. The cells were subsequently rinsed with distilled water, incubated in alkaline electrophoresis buffer for 30 min at 37° C. and electrophoresed at 400 mA for 20 min. The gels were then rinsed with distilled water and placed into 1 M ammonium acetate for 30 min. The gels were subsequently soaked in 100% ethanol for 2 h, dried overnight and stained with SYBR Gold (1:10000 dilution of stock supplied by Molecular Probes, Eugene, Oreg.) for 20 min. Comets were visualized at 330× magnification and DNA damage was assessed using the tail moment parameter (i.e. the distance between the barycenter of the head and the tail of the comet multiplied by the percentage DNA in the tail region). A minimum of 50 cell comets were analyzed for each sample, using Comet Assay χ v4.2 image analysis software, and the values presented as average tail moments for the entire cell population.
The reactive nature of the latter species makes its detection very difficult. However, the induction of DNA damage (i.e. DNA alkylation) represents evidence of its formation and fleeting presence.

EGFR tyrosine kinase = molecular target: T2, EGFR tyrosine kinase (Homo sapiens, UniProt P00533); assay: EGFR kinase enzyme assay (ELISA, PGT phosphorylation); format: biochemical; settings: for IC50: 8 minute exposure, PGT substrate, read-out: IC50, EGFR TK inhibition
T2 construct: purchased
T2 sequence (P00533 25-1210): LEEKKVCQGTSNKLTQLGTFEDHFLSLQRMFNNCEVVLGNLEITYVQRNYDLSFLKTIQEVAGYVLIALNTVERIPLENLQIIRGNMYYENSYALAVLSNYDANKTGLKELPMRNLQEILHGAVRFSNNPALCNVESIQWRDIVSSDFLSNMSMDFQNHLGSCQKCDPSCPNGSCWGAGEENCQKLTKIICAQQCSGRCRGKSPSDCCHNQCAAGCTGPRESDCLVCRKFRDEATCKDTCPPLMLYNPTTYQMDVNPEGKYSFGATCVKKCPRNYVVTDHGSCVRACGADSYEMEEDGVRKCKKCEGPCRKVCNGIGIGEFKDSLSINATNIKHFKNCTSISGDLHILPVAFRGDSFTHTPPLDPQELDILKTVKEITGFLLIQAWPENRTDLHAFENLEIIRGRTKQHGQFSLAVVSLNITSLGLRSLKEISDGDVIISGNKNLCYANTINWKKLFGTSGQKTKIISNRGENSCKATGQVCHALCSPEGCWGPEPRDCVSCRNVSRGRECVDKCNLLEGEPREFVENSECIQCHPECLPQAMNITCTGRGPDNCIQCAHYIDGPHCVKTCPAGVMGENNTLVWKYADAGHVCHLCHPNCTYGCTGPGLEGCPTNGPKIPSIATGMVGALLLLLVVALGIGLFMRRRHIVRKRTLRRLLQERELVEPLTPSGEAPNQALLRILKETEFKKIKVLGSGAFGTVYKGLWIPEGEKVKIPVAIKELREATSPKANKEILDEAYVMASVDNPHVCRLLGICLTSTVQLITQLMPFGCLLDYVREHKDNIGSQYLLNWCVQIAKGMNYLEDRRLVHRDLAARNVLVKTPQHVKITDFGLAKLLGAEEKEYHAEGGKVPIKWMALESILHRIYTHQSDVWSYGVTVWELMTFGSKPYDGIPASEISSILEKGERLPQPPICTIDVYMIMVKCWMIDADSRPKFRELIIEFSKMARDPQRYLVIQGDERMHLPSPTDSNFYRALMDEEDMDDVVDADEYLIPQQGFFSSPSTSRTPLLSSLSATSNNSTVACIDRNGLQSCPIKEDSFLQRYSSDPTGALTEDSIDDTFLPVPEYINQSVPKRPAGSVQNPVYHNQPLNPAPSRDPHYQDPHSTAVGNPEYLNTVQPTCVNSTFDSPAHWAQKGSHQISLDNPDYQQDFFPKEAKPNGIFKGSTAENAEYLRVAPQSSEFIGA
Procedure: EGFR Kinase Enzyme Assay: The EGFR kinase assay was performed following a known procedure. Briefly, Nunc MaxiSorp (Nalge Nunc International, Rochester, N.Y., USA) 96-well plates were incubated overnight at 37° C. with 100 μL/well of […] poly(L-glutamic acid-L-tyrosine, 4:1) PGT in PBS. Excess PGT was removed and the plates were washed three times with wash buffer (0.1% Tween-20 in PBS). The kinase reaction was performed using commercially available isolated EGFR (4.5 ng/well). The compound was added and phosphorylation was initiated by the addition of 20 μL/well of ATP (50 μM). After 8 min at room temperature with constant shaking, the reaction was terminated by aspiration of the reaction mixture and rinsing of the plates (four times) with wash buffer. Phosphorylated PGT was detected following a 25 min incubation with 50 μL/well of horseradish peroxidase-conjugated PY20 anti-phosphotyrosine antibody (Santa Cruz Biotechnology, Santa Cruz, Calif., USA) diluted to […] in blocking buffer (3% bovine serum albumin and 0.05% Tween-20 in PBS). The antibody was removed by aspiration and the plates washed four times with wash buffer. The signals were developed by the addition of 50 μL/well of 3,3′,5,5′-tetramethylbenzidine peroxidase substrate (Kirkegaard and Perry Laboratories, Gaithersberg, Md., USA). Following blue color development, H2SO4 (50 μL; 0.09 M) was added per well to stop the reaction. The plates were read at 450 nm using a Bio-Rad ELISA reader (model 2550; Bio-Rad, Hercules, Calif., USA).
Inhibition of EGFR TK: The EGFR TK inhibitory activity of JDF12 and its metabolite JDF04R was tested in a short 8 minute exposure to an ELISA assay. The assay was based on the inhibition of phosphorylation of poly(L-glutamic acid-L-tyrosine, 4:1) (PGT) by EGFR tyrosine kinase. […] As expected, the EGFR TK-inhibitory activity of MTZ was negligible (FIG. 1).

DU145 = assay: Growth inhibition assay (SRB), DU145; settings: Homo sapiens, DU-145, 144 h, read-out: IC50 (x ± SD)
Procedure: as §1

DU145 cell line = assay: Mouse xenograft study (DU145); settings: for antitumor activity: DU145 xenograft, 100 mg/kg i.p. every other day, 31 days after treatment
[4] = Dose finding and comparative toxicity study in mice; format: in vivo; design: key to Vital Sign, Day 8 / Vital Sign, Day 10 / Vital Sign, Day 16 / Vital Sign, Day 1 / Vital Sign, Day 3 / Vital Sign, Day 6: Normal (i.e. No sign of Toxicity); BCS = 2: BCS (Body Condition Score) = 2 indicates that mice are underconditioned (observable signs include segmentation of the vertebral column, palpability of the dorsal pelvic bones); settings: for Vital Sign, Day 1 / Vital Sign, Day 3 / Vital Sign, Day 6 / Vital Sign, Day 8 / Vital Sign, Day 10 / Vital Sign, Day 16: CD-1 mice (n = 6), 100 mg/kg once every other day
Text: The results are further illustrated hereinbelow in Table 4.

LNCaP-ErbB2 = assay: Growth inhibition assay (SRB), LNCaP-ErbB2; settings: 144 h, read-out: IC50 (x ± SD)
Procedure: as §1

LNCaP-EGFR = assay: Growth inhibition assay (SRB), LNCaP-EGFR; settings: 144 h, read-out: IC50 (x ± SD)
Procedure: as §1

[5] = tested on: DU145, LNCaP, LNCaPEGFR, and LNCaPerb2 cell lines; assay: Growth inhibition assay (SRB), comparisons over all four cell lines; format: cell-based
Text: Each point represents the average of at least two independent experiments run in triplicate.

[6] = listed as Mitozolomide, 100 mg/kg

T1 sequence (P00533 25-1210): as above

Row | Compound | IC50 (LNCaP-WT) [µM] | DNA damage (tail moment) (DU145 cells [3]; DU145 cells, 2 h exposure) | IC50 (EGFR tyrosine kinase; ELISA) [µM] | IC50 (DU145) [µM] | Vital Sign, Day 1 [4] | Vital Sign, Day 3 [4] | Vital Sign, Day 6 [4] | Vital Sign, Day 8 [4] | Vital Sign, Day 10 [4] | Vital Sign, Day 16 [4] | toxicity at 100 mg/kg ([4]; CD-1 mice, 100 mg/kg) | IC50 (LNCaP-ErbB2) [µM] | IC50 (LNCaP-EGFR) [µM] | further results
1 | O=C(Nc1ccc2ncnc(Nc3cccc(Cl)c3)c2c1)c1ncn2c(=O)n(CCCl)nnc12 [JDF12] | 13.2 ± 3.88 | dose-dependent DNA damage | 0.62 | 11.3 ± 0.22 | Normal | Normal | Normal | Normal | Normal | Normal | no signs of toxicity; also recorded: minor toxicity | 13.3 ± 2.02 | 12 ± 0.57 | IC50 ([1]; DU145 cells, EGF stimulated, 2 h drug exposure): 12 µM; potency less than that of JDF04R (fold) ([1]; DU145 whole cell assay): approximately 2 fold; late apoptosis (DU145 cells [2]): significant increase in late apoptosis; DNA damage, fold less than MTZ (DU145 cells [3]; DU145 cells, 2 h exposure): 2 fold; weight loss during the efficacy study (DU145 cell line; CD-1 mice, 100 mg/kg, FIG. 8c): No weight loss; antitumor activity (DU145 cell line; 100 mg/kg): significant antitumor activity; also recorded: superior to that of an equidose of Iressa; MTD at 14 days ([4]; male, CD-1, mouse, in vivo, mice, weight loss over a 14-day period, two animals per group, read-out: maximum tolerated dose): 100 mg/kg; increased anti-proliferation potency compared to Iressa (fold) ([5]; four cell lines): 2-3 fold; increased anti-proliferation potency compared to MTZ (fold) ([5]; four cell lines): 10-16 fold; more potent than equimolar combination of MTZ with Iressa or JDF04R (fold) ([5]; four cell lines): 1.7 fold; more potent than the equieffective 2-drug combination (fold) ([5]; identical conditions): more than 1.3 fold
2 | NC(=O)c1ncn2c(=O)n(CCCl)nnc12 [MTZ, 8-carbamoyl-3-(2-chloroethyl)imidazo[5,1-d]-1,2,3,5-tetrazin-4(3H)-one] | 150 ± 7.92 |  |  | 179 ± 21.1 | Normal | Normal |  |  |  |  | toxic at this dose | 142 ± 8.93 | 176 ± 6.51 | level of DNA damage, fold higher than JDF12 (DU145 cells [3]): approximately 2 fold; EGFR TK-inhibitory activity (EGFR tyrosine kinase; ELISA, FIG. 1): negligible; Vital Sign, Day 6 [4, 6]: Weight loss > 20% (1 mouse); also recorded: Death (1 mouse); also recorded: (BCS = 2); Vital Sign, Day 8 [4, 6]: (BCS = 2); also recorded: Weight loss > 20% (1 mouse); Vital Sign, Day 10 [4, 6]: (BCS = 2); also recorded: Weight loss > 20% (1 mouse); Vital Sign, Day 16 [4, 6]: (BCS = 2); also recorded: All Mice Thin; also recorded: Death (3 mice); overall body condition score (BCS) ([4]; CD-1 mice, 100 mg/kg, 6-10 days after initiating treatment): 2
3 | Nc1[nH]cnc1C(=O)Nc1ccc2ncnc(Nc3cccc(Cl)c3)c2c1 [JDF04R] | 178 ± 13.3 | did not demonstrate any DNA damaging activity | 0.23 | 151 ± 17 |  |  |  |  |  |  |  | 111 ± 18.1 | 119 ± 4.1 | inhibition of EGFR TK ([1]; DU145 cells, at concentrations as low as 6 μM): ~100%; more potent EGFR TK inhibitor than JDF12 (fold) (EGFR tyrosine kinase; JDF04R vs JDF12, ELISA IC50): 2.7 fold
4 | COc1cc2ncnc(Nc3ccc(F)c(Cl)c3)c2cc1OCCCN1CCOCC1 [Iressa] |  |  |  |  | Normal | Normal | Normal | Normal | Normal | Normal | no signs of toxicity |  |  | antitumor activity (DU145 cell line): did not show significant antitumor activity
